Measured values from publication PMC10537280, “Chemo-/Regio-Selective Synthesis of Novel Functionalized Spiro[pyrrolidine-2,3′-oxindoles] under Microwave Irradiation and Their Anticancer Activity” (Molecules, 2023).
Where two headings read alike, the source gives them in different places. Each block holds one compound with its values, some of them ahead of it.

Assays:
[1] = tested on: human lung A549 cancer cell lines; assay: MTT cytotoxicity assay, lung cancer A549 cells; format: cell-based; settings: for IC50: Homo sapiens, read-out: A549 Cells IC50; for S.I. Selectivity index lung (IC50 normal cells/IC50 cancer cells): BEAS-2B IC50 / A549 IC50
Procedure: (§1) Adenocarcinomic human alveolar basal epithelial (A549) and human hepatoma (HepG2) cancer cell lines, immortalized normal human liver (LO2), human bronchial epithelial (BEAS-2B cells were purchased from [NT], Manassas, VA, USA). […] Invitrogen, Waltham, MA, USA). All cells were incubated at 37 °C in a 5% humidified CO2 incubator). All test compounds were dissolved in DMSO at a final concentration of 50 mM and stored at -20 °C before use. Cytotoxicity was assessed by the MTT (5 mg/mL) assay, as described previously. Briefly, 5 × 10^3 cells per well were seeded in 96-well plates before drug treatments. […] Cells without drug treatment were used as controls. Subsequently, 10 μL of 5 mg/mL MTT solution was added to each well and incubated at 37 °C for 4 h, followed by the addition of 100 μL solubilization buffer (12 mM HCl in a solution of 10% SDS) and overnight incubation. The absorbance, A570 nm, was then determined in each well on the next day. The percentage of cell viability was calculated using the expression: % viability = Atreated/Acontrol × 100, and was given as cytotoxicity (Table 2 and Table 3; […]

[2] = tested on: human HepG2 cancer cell lines; assay: MTT cytotoxicity assay, liver cancer HepG2 cells; format: cell-based; settings: for IC50: Homo sapiens, HepG2, 72 h, read-out: HepG2 Cells IC50; for S.I. Selectivity index liver (IC50 normal cells/IC50 cancer cells): LO2 IC50 / HepG2 IC50
Procedure: as §1

[3] = tested on: immortalized liver LO2 normal cell lines; assay: MTT cytotoxicity assay, normal liver LO2 cells; format: cell-based; settings: Homo sapiens, read-out: LO2 Cells IC50
Procedure: as §1

[4] = tested on: immortalized lung BEAS-2B normal cell lines; assay: MTT cytotoxicity assay, normal lung BEAS-2B cells; format: cell-based; settings: Homo sapiens, 72 h, read-out: BEAS-2B Cells IC50
Procedure: as §1

[5] = A549, MTT, 72 h, 0.19–100 μM, means of at least three independent experiments in duplicates
[6] = MTT, 72 h, 0.19–100 μM, means of at least three independent experiments in duplicates
[7] = L02, MTT, 72 h, 0.19–100 μM, normal liver cells
[8] = MTT, 0.19–100 μM, normal lung cells

SMILES: C[C@@H]1CC[C@H]2[C@@H](C)C(=O)O[C@@H]3O[C@@]4(C)CC[C@@H]1[C@]32OO4 [ART, artemisinin, reference compound]
IC50 [1, 5]: 100 µM
IC50 [2, 6]: > 100 µM
IC50 [3, 7]: > 100 µM
IC50 [4, 8]: 100 µM

SMILES: C[C@H]1[C@H](OC(=O)CCC(=O)O)O[C@@H]2O[C@@]3(C)CC[C@H]4[C@H](C)CC[C@@H]1[C@@]24OO3 [AS, artesunic acid, reference compound]
S.I. Selectivity index lung (IC50 normal cells/IC50 cancer cells) [1]: 0.76
IC50 [1, 5]: 9.85 µM
IC50 [2, 6]: 4.09 ± 0.4 µM
S.I. Selectivity index liver (IC50 normal cells/IC50 cancer cells) [2]: 2.01
IC50 [3, 7]: 8.25 µM
IC50 [4, 8]: 7.53 µM

SMILES: CCN(CC)CCCC(C)Nc1ccnc2cc(Cl)ccc12 (centres unmarked) [CQ, chloroquine, reference compound]
IC50 ([1]; A549, 72 h): 100 µM
IC50 [2]: 49.02 ± 0.4 µM
S.I. Selectivity index liver (IC50 normal cells/IC50 cancer cells) [2]: 0.30
IC50 ([3]; L02, 72 h): 15 µM
IC50 [4]: 3.07 µM

melting point: 182 to 184 °C
SMILES: COc1ccc(OC)c(C2C([N+](=O)[O-])C(CC(C)C)NC23C(=O)Nc2ccccc23)c1 (centres unmarked) [Compound 4a, 3′-(2,5-dimethoxyphenyl)-5′-isobutyl-4′-nitrospiro[indoline-3,2′-pyrrolidin]-2-one]
IC50 [1, 5]: > 100 µM
IC50 [2, 6]: > 100 µM
IC50 [3, 7]: > 100 µM
IC50 [4, 8]: > 100 µM

melting point: 150 to 152 °C
SMILES: COc1ccc(OC)c(C2C([N+](=O)[O-])C(C)NC23C(=O)Nc2ccccc23)c1 (centres unmarked) [Compound 4b, 3′-(2,5-dimethoxyphenyl)-5′-methyl-4′-nitrospiro[indoline-3,2′-pyrrolidin]-2-one]
IC50 [1, 5]: > 100 µM
IC50 [2, 6]: > 100 µM
IC50 [3, 7]: > 100 µM
IC50 [4, 8]: > 100 µM

melting point: 142 to 144 °C
SMILES: COc1ccc(OC)c(C2C([N+](=O)[O-])C(CC(C)C)NC23C(=O)Nc2ccc(Br)cc23)c1 (centres unmarked) [Compound 4c, 5-bromo-3′-(2,5-dimethoxyphenyl)-5′-isobutyl-4′-nitrospiro[indoline-3,2′-pyrrolidin]-2-one]
S.I. Selectivity index lung (IC50 normal cells/IC50 cancer cells) [1]: 0.96
IC50 [1, 5]: 35 µM
IC50 [2, 6]: 60.3 µM
S.I. Selectivity index liver (IC50 normal cells/IC50 cancer cells) [2]: 0.62
IC50 [3, 7]: 37.6 µM
IC50 [4, 8]: 33.5 µM

melting point: 210 to 212 °C
SMILES: COc1ccc(OC)c(C2C([N+](=O)[O-])C(C(C)C)NC23C(=O)Nc2ccccc23)c1 (centres unmarked) [Compound 4d, 3′-(2,5-dimethoxyphenyl)-5′-isopropyl-4′-nitrospiro[indoline-3,2′-pyrrolidin]-2-one]
IC50 [1, 5]: > 100 µM
IC50 [2, 6]: > 100 µM
IC50 [3, 7]: > 100 µM
IC50 [4, 8]: > 100 µM

melting point: 108 to 110 °C
SMILES: COc1ccc(OC)c(C2C([N+](=O)[O-])C(C)NC23C(=O)Nc2ccc(Br)cc23)c1 (centres unmarked) [Compound 4e, 5-bromo-3′-(2,5-dimethoxyphenyl)-5′-methyl-4′-nitrospiro[indoline-3,2′-pyrrolidin]-2-one]
IC50 [1, 5]: 85.6 µM
IC50 [2, 6]: > 100 µM
S.I. Selectivity index liver (IC50 normal cells/IC50 cancer cells) [2]: <0.81
IC50 [3, 7]: 81.3 µM
IC50 [4, 8]: > 100 µM

melting point: 95 to 97 °C
SMILES: COc1ccc(C2C([N+](=O)[O-])C(CC(C)C)NC23C(=O)Nc2ccc(Br)cc23)cc1OCc1ccccc1 (centres unmarked) [Compound 4f, 3′-(3-(benzyloxy)-4-methoxyphenyl)-5-bromo-5′-isobutyl-4′-nitrospiro[indoline-3,2′-pyrrolidin]-2-one]
IC50 [1, 5]: 41.1 µM
IC50 [2, 6]: 82 µM
IC50 [3, 7]: > 100 µM
IC50 [4, 8]: > 100 µM

melting point: 155 to 157 °C
SMILES: COc1ccc(C2C([N+](=O)[O-])C(Cc3ccccc3)NC23C(=O)Nc2ccc(Br)cc23)cc1OCc1ccccc1 (centres unmarked) [Compound 4g, 5′-benzyl-3′-(3-(benzyloxy)-4-methoxyphenyl)-5-bromo-4′-nitrospiro[indoline-3,2′-pyrrolidin]-2-one]
IC50 [1, 5]: > 100 µM
IC50 [2, 6]: > 100 µM
IC50 [3, 7]: > 100 µM
IC50 [4, 8]: > 100 µM
